This is an account of results in paper PMC4434572, “Identification of novel drugs to target dormant micrometastases” (BMC Cancer, 2015).

Experiment [1] relates to cancer cells on SISgel or plastic. The experiment is described as follows: Activity of leads and analogs on cancer cells grown on plastic vs SISgel (cell line not stated). The experiment is classed as cell-based. As to conditions: for SR: ratio IC50-p/IC50-S; for Hit: YES/NO. The protocol: The NCI library is no longer available in the form used here, but how it was constructed is described (http://dtp.nci.nih.gov/branches/dscb/diversity_explanation.html). The ChemBridge library is a subset (Set Code NM1024) of the full 50,000 compound library (http://www.chembridge.com/screening_libraries/diversity_libraries/). Compounds were diluted to 100 μM before use. SISgel was prepared as described previously from powdered porcine small intestine submucosa obtained from Cook Biotech (W. Lafayette, IN). It is a natural product that is used extensively in tissue engineering as a bioscaffold. J82 bladder cancer cells and other cell lines were obtained from the ATCC (Bethesda, MD). […] Efficacy in vitro was assessed by plating 30,000 cells in 50 μL of high glucose DMEM with penicillin-streptomycin and 10 % fetal calf serum on SISgel in a 96-well plate containing 50 μL of gelled SISgel per well. Cells were allowed to attach and assume the SISgel phenotype for 48 h. A matching plate without SISgel was prepared 24 h later by pipetting 3,000 cells in 100 μL of high glucose DMEM with penicillin-streptomycin and 10 % fetal calf serum into each well of 96 well plate. The cells were allowed to attach and grow for 24 h. […] The cells were exposed to drug in fresh medium for 48 h, at which time the cell number was determined using the CFDA-AM cellular esterase proliferation assay (cat. #C1354, Life Technologies). For screening the results are reported as the ratio of cell count of cells on the plastic surface to the cell count on SISgel. An initial difference of 1.5 fold identified potential hits. All potential hits were confirmed in triplicate. […] Data were analyzed using nonlinear regression to a sigmoid curve with Prism 4 (GraphPad Software, Inc., LaJolla, CA). […]

Experiment [2] deals with 4T1 stem cells (CD44v3highALDH1high 4T1 cells). The experiment is described as follows: Tumor cell growth inhibition of sphere-derived cancer stem cells (CellTiter-Glo). Type of experiment: cell-based, mouse. The note with it: suspension culture, 5 days; read-out: EC50 4T1 stem cells in suspension culture. How it is done: Sphere formation to further increase the fraction of cancer stem cells was induced by suspending CD44v3highALDH1high 4T1 cells in 1:1 Matrigel/basal medium in a total of volume of 100 μl. Samples (5 × 10^4 cells) were then plated around the rims of wells in a 12-well plate and allowed to solidify at 37 °C for 10 min before 1 ml basal medium (with B27 plus 20 ng/mL EGF, 10 ng/mL FGF and 4 μg/mL insulin) was added. Medium was replenished every 3-days. Ten days after plating, spheres (tight, spherical, nonadherent masses >40 μm in diameter) per well were counted, and at least 100 spheres per group were measured. The number of spheres containing CD44v3highALDH1high 4T1 cells in each well and expressed as sphere forming units (SFU) as described previously. The number of SFUs per well was counted in triplicate wells for each condition.
To recover CD44v3highALDH1high 4T1 cells from the spheres, Matrigel–containing wells were treated with 1 mg/ml Dispase solution (Gibco). Spheres were then digested with trypsin and 0.05 % EDTA. CD44v3highALDH1high cells dissociated from spheres were counted by hemacytometer and replated to generate spheres of next generation. Serial passage of individual spheres was regularly performed in order to verify self-renewal capability of cells associated the spheres. Measurement of growth for CD44v3highALDH1high cells (dissociated from spheres) was also performed by incubating these cells in serum-free RPMI-1640 medium for 3-weeks using MTT-based growth assay as described previously.
To analyze tumor cell growth properties, sphere-derived CD44v3highALDH1high 4T1 cells were incubated in basal medium (with B27 plus 20 ng/mL EGF, 10 ng/mL FGF and 4 μg/mL insulin). Medium was replenished every 3-days. Twenty-one days after plating, the number of cell growth was then counted under a microscope at low magnification. In some cases, these sphere-derived CD44v3highALDH1high 4T1 cells were also treated with DT compounds for 5 days or doxorubicin (range 1 μM to 1 mM) for 5 days at 37 °C. The CellTiter-Glo® Luminescent Cell Viability Assay (Promega, Madison, WI) was utilized to determine the number of metabolically active cells based on the quantification of adenosine triphosphate (ATP). The percentage of […] relative to untreated controls was plotted as a linear function of drug concentration. The 50 % inhibitory concentration (IC50) was identified as the concentration of drug required to achieve a 50 % growth inhibition relative to untreated controls.
A stem cell–enriched cell population was prepared as described previously by sorting for ALDH1 and CD44v3. The identification of aldehyde dehydrogenase1 (ALDH1) activity from tumor–derived 4T1 Luc2-GFP cells (PerkinElmer, Waltham, MA) was conducted using the ALDEFLUOR kit (StemCell Technologies, Durham, NC). Specifically, tumor cells were suspended in ALDEFLUOR assay buffer containing ALDH1 substrate (BAAA, […] per 1 × 10^6 cells) and incubated for 30 min at 37 °C. As a negative control, 4T1 cells were treated with a specific ALDH1 inhibitor, […] diethylaminobenzaldehyde (DEAB). Next, for labeling cell surface marker, tumor–derived 4T1 cells were suspended in 100 μl ALDEFLUOR buffer followed by incubating with 20 μl allophycocyanin (APC)-labeled anti-CD44v3 antibody (recognizing the v3-specific domain of CD44) or APC-labeled normal mouse IgG (as a control) (BD Bioscience, San Jose, CA) for 15 min at 4 °C. For FACS sorting, tumor cells were incubated in PBS buffer followed by FACS (BD FACS Aria llu, BD Bioscience, San Jose, CA) sorting using dual-wavelength analysis as described previously. The parental cell line contained 2 % CD44v3highALDH1high cells but the final sorted cells contained 18 % CD44v3highALDH1high cells, a 9-fold enrichment.
In general terms: In ATP-based viability assays light output follows the ATP content of the culture.

Setting [3] is: cells on SISgel, read-out: IC50-S.
Where [4] appears, read: cells on plastic, read-out: IC50-p.

pEC50, pIC50: −log10 of the molar value. Read-outs that look alike come from different tables or passages of the source.

For the compound `O=S(=O)([O-])c1ccc(N=Nc2ccc(O)c3ccccc23)cc1.[Na+]` [Orange 1], the pIC50 was 2.92 in experiment [1] (setting [3]) and 3.18 in experiment [1] (setting [4]). The SR in experiment [1] was 0.55. The pEC50 in experiment [2] was 3.40.

On to `O=S(=O)([O-])c1cc(S(=O)(=O)[O-])c2c(N=Nc3ccc(S(=O)(=O)[O-])c4ccccc34)c(O)c(S(=O)(=O)[O-])cc2c1.[Na+].[Na+].[Na+].[Na+]` [Ponceau 6R], for which the results for the pIC50 in experiment [1] (setting [3]) and in experiment [1] (setting [4]) were 3.97 and 3.91, respectively. The SR in experiment [1] was 1.2.

With `Cc1cc(C)c(S(=O)(=O)[O-])cc1N=Nc1cc(S(=O)(=O)[O-])c2ccccc2c1O.[Na+].[Na+]` [Ponceau SX], in experiment [1], the Hit entry is on record as “YES” and the SR is given as 3.8. Further, the pIC50 in experiment [1] (setting [3]) was 4.27. Further, the pIC50 in experiment [1] (setting [4]) is 3.68.

Consider `Cc1ccc(N=Nc2c(O)c(S(=O)(=O)[O-])cc3cc(S(=O)(=O)[O-])ccc23)c(C)c1.[Na+].[Na+]` [Ponceau Xylidine], for which, in experiment [1], the Hit result is “YES” and the SR is 2.6. Also, the negative logarithm of the IC50 (pIC50) in experiment [1] (setting [3]) is 4.82. Besides, in experiment [1] (setting [4]), the pIC50 is 4.42.

In the case of `COc1ccccc1N=Nc1c(S(=O)(=O)[O-])cc2cc(S(=O)(=O)[O-])cc(NC(C)=O)c2c1O.[Na+].[Na+]` [Pontacyl Carmine 2B], the Hit result in experiment [1] is reported as “YES”. In addition, the pIC50 in experiment [1] (setting [3]) is 4.62; in experiment [1] (setting [4]), 4.28. In experiment [1], the SR is listed as 2.2.

On to `O=S(=O)([O-])c1cc(Nc2nc(Cl)nc(Cl)n2)c2c(O)c(N=Nc3ccccc3)c(S(=O)(=O)[O-])cc2c1.[Na+].[Na+]` [Procion Red Mx - 5B], for which the values for the pIC50 in experiment [1] (setting [3]) and in experiment [1] (setting [4]) were 4.24 and 4.11, respectively. For the same compound, in experiment [1], the SR was 1.4.

Turning to `O=S(=O)([O-])c1ccccc1N=Nc1c(S(=O)(=O)[O-])cc2cc(S(=O)(=O)[O-])c(N=Nc3ccccc3S(=O)(=O)[O-])c(O)c2c1O.[Na+].[Na+].[Na+].[Na+]` [Sulfanazo II], the Hit entry in experiment [1] was “YES”. Moreover, the pIC50 in experiment [1] (setting [3]) was 4.47; in experiment [1] (setting [4]) it was 4.24. The SR in experiment [1] came to 2.

With `O=S(=O)([O-])c1ccc(N=Nc2c(S(=O)(=O)[O-])cc3cc(S(=O)(=O)[O-])cc(O)c3c2O)cc1.[Na+].[Na+].[Na+]` [Sulfanilic Acid Azochromotrop], in experiment [1], the Hit result is recorded as “YES” and the SR came out at 2.0. Moreover, the negative-log IC50 (pIC50) in experiment [1] (setting [3]) is 4.72. Moreover, the pIC50 in experiment [1] (setting [4]) was 4.42.

Take `O=S(=O)(O)c1cc(Cl)cc(N=Nc2c(S(=O)(=O)O)cc3cc(S(=O)(=O)O)c(N=Nc4cc(Cl)cc(S(=O)(=O)O)c4O)c(O)c3c2O)c1O` [Sulfochlorophenol S]: the Hit result in experiment [1] is “YES”. In addition, the values for the pIC50 in experiment [1] (setting [3]) and in experiment [1] (setting [4]) were 4.64 and 4.34, respectively. In addition, the SR in experiment [1] is on record as 2.0.

Regarding `O=S(=O)([O-])c1ccc(N=Nc2c(O)ccc3cc(S(=O)(=O)[O-])ccc23)cc1.[Na+].[Na+]` [Sunset Yellow FCF], in experiment [1], the Hit result is reported as “YES” and the SR was determined as 2.2. Besides, the pIC50 in experiment [1] (setting [3]) was 4.51. In addition, in experiment [1] (setting [4]), the pIC50 was 4.17.

`Cc1cc(-c2ccc(/N=N/c3c(S(=O)(=O)O)cc4cc(S(=O)(=O)O)cc(N)c4c3O)c(C)c2)ccc1/N=N/c1c(S(=O)(=O)O)cc2cc(S(=O)(=O)O)cc(N)c2c1O` [Trypan Blue]: in experiment [1], the Hit entry is listed as “YES” and the SR worked out at 4.5. Besides, in experiment [1] (setting [3]), the pIC50 is 4.44. Moreover, in experiment [1] (setting [4]), the pIC50 is 3.80.

For `Cc1ccc(NC(=O)c2cc3ccccc3c(N=Nc3cc(S(=O)(=O)[O-])ccc3O)c2O)c(C)c1.[Na+]` [Xylidyl Blue 1], in experiment [1], the Hit entry is given as “YES” and the SR turned out to be 2.4. Besides, the pIC50 in experiment [1] (setting [3]) is 4.35. The pIC50 in experiment [1] (setting [4]) is 3.97.

With nitrazine Yellow, in experiment [1], the Hit entry is “YES” and the SR is 2.0. The pIC50 in experiment [1] (setting [3]) is 4.48. Further, in experiment [1] (setting [4]), the pIC50 is 4.19.

A word on the pIC50: it is the negative decadic logarithm of the IC50, by convention in mol/L. For orientation: pEC50 means the negative decadic logarithm of the EC50, by convention in mol/L.
